Assay results: paper PMC12666569, “The Pseudomonas aeruginosa membrane histidine kinase BqsS/CarS directly senses environmental ferrous iron (Fe^2+)” (The Journal of Biological Chemistry, 2025)

What was measured:
[1] = biological target: T1, intact PaBqsS (Pseudomonas aeruginosa, UniProt Q9I0I2); details: 5.0 mM Mg2+, 37 °C, SEC buffer pH 7.5, Fos-Chol-14; no added Fe2+
T1 construct: gene carS

[2] = biological target: the molecule itself; experiment: SEC; cleaved, purified PaBqsS in detergent (Fos-Chol-14, also glyco-diosgenin (GDN)); HiLoad 16/600 Superose 6 pg; 50 mM Tris pH 7.5, 100 mM NaCl, 1 mM TCEP, 5% glycerol, 0.02% Fos-Chol-14

Molecule | specific activity [1] | stoichiometry N [2]
Nc1ncnc2c1ncn2[C@@H]1O[C@H](COP(=O)(O)OP(=O)(O)OP(=O)(O)O)[C@@H](O)[C@H]1O [ATP] | We then tested the ATPase activity of intact PaBqsS purified in Fos-Chol-14 | –
Pseudomonas aeruginosa membrane histidine kinase BqsS/CarS, intact (enzyme, also called PaBqsS; intact PaBqsS; source: E. coli BL21 (DE3), membranes solubilized in detergent (Fos-Chol-14), purified (IMAC, TEV cleavage, second IMAC, SEC)) MRSIQRRLSVGLFAVLLVVGLVLAQTGLWLFDQGLRRYFAGNLREEAENLLVAMVRGPNGMQLDEQRLNPAFQRPYSGRYFVIELEKDTWRSRSLWDSELEVPHKKGLVQGLVDGPEEQRLLVFRGHYKRMGQKLRIVVAQDYTPILESFARVQWMGLGAGALALLLVLLLQRLTVRRSLRPLEEVRLQIAQLQQGQRSQLDNQAPEELEPLVEQINHLLAHTEETLKRSRNALGNLGHALKTPLAVLVSLAEREEMARQPELQQVLREQLEQIQQRLGRELGKARLVGEALPGAHFDCAEELPSLCDTLRLIHGPHLQVSWSAPPGLRLPWDREDLLEMLGNLLDNACKWADSEVRLTVAQGEGMVRLKVDDDGPGILPDQRQAVLERGTRLDEQVSGHGLGLGIARDIAEACGGRLSLEDSPLGGLRVSVELPLQKSGRAARA | – | 2
